US9745261B2, “Inhibitors of the MITF molecular pathway” (THE GENERAL HOSPITAL CORPORATION, priority 2013, dated 2017)

How the values were obtained:
[1] = tested on: primary human melanocytes; assay: Cell proliferation/viability assay of primary human melanocytes; assay type: cell-based; conditions: Melanocyte, 24 hours, CellTiter-Glo
Procedure: Primary human neonatal melanocytes were isolated from discarded foreskins by gentle dispase treatment and grown in Ham's F10 media supplemented with 7% FBS, penicillin/streptomycin/glutamine, 0.1 mM methyl-3-(2-methylpropyl)-7H-1-purine-2,6-dione (IBMX), 50 ng/mL 12-tetradecanoylphorbol 13-acetate (TPA), 1 μM Na3VO4 and 1 μM N(6),2′-O-dibutyryladenosine 3′:5′ cyclic monophosphate (dbcAMP). Cells were plated at 4,000 cells per well of a 384 well plate. On the following day, 10 nL of compound was added per well and incubated for 24 hours. The compounds were tested at different concentrations to determine IC50 values. At the end of compound treatment, cell viability was measured with CellTiter-Glo (Promega) and luminescence measured with the PerkinElmer EnVision plate reader. Data were normalized against DMSO in Genedata Screener's Assay Analyzer.
Primary human neonatal melanocytes were isolated from discarded foreskins by gentle dispase treatment and grown in TIVA media (Ham's F10 media supplemented with 7% FBS, penicillin/streptomycin/glutamine, 0.1 mM IBMX, 50 ng/mL TPA, […]). […]
Day 3 • 5. […] Read on the Perkin-Elmer EnVision plate reader with luminescence (LUM) settings for 0.1 sec per well. qPCR Assay for Target Gene Expression (MITF: 2084-05, TRPM1: 2084-09, CDK2: 2084-11, DCT: 2084-12, MLANA: 2084-13)

TRPM1 = assay: qPCR assay for TRPM1 expression in SK-MEL-5 cells; assay type: cell-based; conditions: Homo sapiens; SK-MEL-5 melanoma cells, up to 35 μM; read-out: TRPM-1 qPCR assay EC50
MITF = assay: qPCR assay for MITF expression in SK-MEL-5 cells; assay type: cell-based; conditions: Homo sapiens; SK-MEL-5 melanoma cells, up to 35 μM
Procedure: SK-MEL-5 cells were treated with compounds for 24 hours. Next, cells were lysed with DNase I (Ambion, from Cell to CT Lysis Mix). Lysed cells were delivered to a RT-PCR plate (Ambion, Cells to CT RT Mix) and the plates were then processed for reverse transcription to create cDNA. qPCR was performed by transferring cDNA from the RT-PCR plate to a qPCR plate containing PCR master mix (Roche, Probes Master), FAM Taqman probe/primer set for the target gene (human MITF, Applied Biosystem, 4331182 Hs01117294_m1), VIC Taqman probe/primer set for a house keeping gene (human GAPDH, Applied Biosystems C10228) and water. qPCR plates were cycled using a real-time PCR instrument (Roche, Light Cycler). Using the instrument software, a cycle call was generated when each well enters log phase amplification (Ct). The delta Ct value was determined by subtracting the Ct value of the control gene (GAPDH) from the Ct value of the target gene (MITF) in each well. The delta delta Ct value of each compound treatment was determined by averaging the delta Ct values of the mock well on each plate and subtracting that average from the delta Ct value of each compound well. […]
• 10. […] The RT assay plates are incubated at 37° C. for 1 hour and the reverse transcriptase is inactivated by incubating the plates for 1 minute at 95° C. • 13. cDNA is stored at −80° C. until ready for qPCR analysis […]

Potassium Channel hERG = molecular target: T1, Potassium Channel hERG (Homo sapiens, UniProt Q12809); assay: Radioligand binding, Potassium Channel hERG
T1 construct: Eurofins Panlabs
T1 sequence (Q12809 whole entry): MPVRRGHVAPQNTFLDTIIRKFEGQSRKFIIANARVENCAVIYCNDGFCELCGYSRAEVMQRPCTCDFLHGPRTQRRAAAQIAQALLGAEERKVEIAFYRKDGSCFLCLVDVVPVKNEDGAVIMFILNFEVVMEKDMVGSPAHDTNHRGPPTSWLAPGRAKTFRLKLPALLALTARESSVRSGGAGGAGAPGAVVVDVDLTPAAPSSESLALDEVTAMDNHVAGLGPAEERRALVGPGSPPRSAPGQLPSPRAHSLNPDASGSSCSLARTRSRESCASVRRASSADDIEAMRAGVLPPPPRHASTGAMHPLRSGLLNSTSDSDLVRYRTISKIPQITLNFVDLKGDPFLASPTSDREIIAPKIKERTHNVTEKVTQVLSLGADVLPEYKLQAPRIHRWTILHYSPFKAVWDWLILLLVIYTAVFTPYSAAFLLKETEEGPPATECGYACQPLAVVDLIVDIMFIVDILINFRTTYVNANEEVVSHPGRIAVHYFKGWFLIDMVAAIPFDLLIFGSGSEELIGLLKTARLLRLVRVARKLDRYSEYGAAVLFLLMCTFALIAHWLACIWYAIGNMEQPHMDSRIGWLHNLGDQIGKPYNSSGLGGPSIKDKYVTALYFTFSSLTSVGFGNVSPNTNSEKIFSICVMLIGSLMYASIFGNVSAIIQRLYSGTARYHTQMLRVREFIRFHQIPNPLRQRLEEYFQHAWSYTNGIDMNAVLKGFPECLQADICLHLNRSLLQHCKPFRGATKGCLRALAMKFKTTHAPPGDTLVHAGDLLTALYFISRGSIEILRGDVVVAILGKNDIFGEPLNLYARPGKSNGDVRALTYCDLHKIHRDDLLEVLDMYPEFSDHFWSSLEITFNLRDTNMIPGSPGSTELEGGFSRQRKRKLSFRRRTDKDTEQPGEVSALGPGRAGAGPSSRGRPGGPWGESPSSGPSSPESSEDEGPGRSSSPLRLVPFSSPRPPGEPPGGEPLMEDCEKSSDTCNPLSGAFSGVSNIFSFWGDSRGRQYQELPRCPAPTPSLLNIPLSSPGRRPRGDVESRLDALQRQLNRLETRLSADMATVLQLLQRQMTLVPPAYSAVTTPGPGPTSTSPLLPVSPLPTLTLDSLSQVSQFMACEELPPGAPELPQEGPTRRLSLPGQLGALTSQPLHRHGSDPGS

Adenosine A2A = molecular target: T2, Adenosine A2A (Homo sapiens, UniProt P29274); assay: Radioligand binding, Adenosine A2A
T2 construct: Eurofins Panlabs, Inc. (contract assay) 200610 (assay number)
T2 sequence (P29274 whole entry): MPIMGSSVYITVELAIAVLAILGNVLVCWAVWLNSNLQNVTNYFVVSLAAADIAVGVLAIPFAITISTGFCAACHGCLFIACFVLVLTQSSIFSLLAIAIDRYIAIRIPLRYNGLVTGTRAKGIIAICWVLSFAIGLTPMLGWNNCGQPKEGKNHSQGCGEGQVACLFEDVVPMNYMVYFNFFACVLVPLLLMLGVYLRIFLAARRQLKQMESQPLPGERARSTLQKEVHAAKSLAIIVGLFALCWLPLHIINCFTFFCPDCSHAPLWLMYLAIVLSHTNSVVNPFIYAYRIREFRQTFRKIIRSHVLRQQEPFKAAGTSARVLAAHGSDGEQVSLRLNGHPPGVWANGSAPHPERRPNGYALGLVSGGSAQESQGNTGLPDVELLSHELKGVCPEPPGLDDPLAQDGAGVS

Melatonin MT1 = molecular target: T3, Melatonin MT1 (Homo sapiens, UniProt P48039); assay: Radioligand binding, Melatonin MT1
T3 construct: Eurofins Panlabs, Inc
T3 sequence (P48039 whole entry): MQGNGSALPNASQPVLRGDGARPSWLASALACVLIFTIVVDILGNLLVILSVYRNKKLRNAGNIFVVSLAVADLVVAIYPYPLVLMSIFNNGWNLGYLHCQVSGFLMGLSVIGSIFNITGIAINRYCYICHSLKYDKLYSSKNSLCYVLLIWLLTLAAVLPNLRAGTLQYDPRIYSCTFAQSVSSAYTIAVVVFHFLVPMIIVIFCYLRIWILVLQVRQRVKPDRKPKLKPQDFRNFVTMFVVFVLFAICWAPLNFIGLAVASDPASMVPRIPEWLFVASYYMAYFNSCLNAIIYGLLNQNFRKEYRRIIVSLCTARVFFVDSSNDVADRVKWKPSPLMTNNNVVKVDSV

[2] = molecular target: T4, Leukotriene, Cysteinyl CysLT1 (Homo sapiens, UniProt Q9Y271); assay: Radioligand binding, Leukotriene, Cysteinyl CysLT1
T4 construct: Eurofins Panlabs, Inc
T4 sequence (Q9Y271 whole entry): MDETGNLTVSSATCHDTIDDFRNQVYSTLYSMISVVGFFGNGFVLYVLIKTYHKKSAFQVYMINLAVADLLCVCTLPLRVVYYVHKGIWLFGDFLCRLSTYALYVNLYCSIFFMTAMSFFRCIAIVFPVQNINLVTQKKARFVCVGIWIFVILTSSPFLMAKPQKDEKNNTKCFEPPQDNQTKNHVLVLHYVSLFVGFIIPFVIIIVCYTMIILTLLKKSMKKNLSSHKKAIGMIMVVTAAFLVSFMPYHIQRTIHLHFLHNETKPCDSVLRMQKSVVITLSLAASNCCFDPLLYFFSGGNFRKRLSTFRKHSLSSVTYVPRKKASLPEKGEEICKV

SMILES	IC50 [1]	EC50 (TRPM1)	EC50 (MITF)	inhibition at 10 µM (Potassium Channel hERG)	inhibition at 10 µM (Adenosine A2A)	inhibition at 10 µM (Melatonin MT1)	inhibition at 10 µM [2]
NS(=O)(=O)c1ccc(NC2=CC(=O)c3ccccc3C2=O)cc1 [4-((1,4-dioxo-1,4-dihydronaphthalen-2-yl)amino)benzenesulfonamide]	7.14 µM	160 nM	160 nM	–	–	–	–
NS(=O)(=O)c1ccc(NC2=CC(=O)c3ccccc3C2=O)cc1 [Example 1, 4-((1,4-Dioxo-1,4-dihydronaphthalen-2-yl)amino)benzenesulfonamide]	–	–	–	-4%	50%	9%	5%
